Reference: patent US12533386B2, “Preparation of black tea extract with high theaflavin content and use thereof” (Huanggang Normal University, priority 2022, dated 2026)

Test system: atherosclerosis in ApoE−/− (ApoE-KO) mice
Test: Atherosclerosis mouse model (ApoE-KO, high fat diet), histological analyses
Assay type: in vivo
Settings: 2.5 mg and 7.5 mg theaflavin treatment, especially high dose of 7.5 mg; versus high fat diet group
Experimental: Twenty four model male ApoE−/− (ApoE-KO) mice were fed a high fat diet for 6 weeks to develop established atherosclerosis. At 8 weeks of age, they were divided into 4 treatment groups: control, high fat diet, 2.5 mg theaflavin treatment, and 7.5 mg theaflavin treatment. 8 weeks after commencement of the study, ApoE-KO mice were anaesthetized. All animal experiments were performed in accordance with the Guidelines for the Care and Use of Laboratory Animals, Ministry of Science and Technology, China. This study was approved by the Animal Care and Scientific Committee of Huanggang Normal University, Hubei, China.

## O=c1c(O)cc([C@H]2Oc3cc(O)cc(O)c3C[C@H]2O)cc2c([C@H]3Oc4cc(O)cc(O)c4C[C@H]3O)cc(O)c(O)c12 [theaflavin]
  tissue damages in histology (aorta, adipose): could reverse some of the tissue damages
